Patent publication US10562912B2 (C&C Research Laboratories, priority 2013, dated 2020)

Assays:
Format in all cases: cell-based
STAT3 = molecular target: T1, STAT3 (Homo sapiens, UniProt P40763); assay: STAT3 reporter gene assay (luciferase), LNCaP stable cell line (pSTAT3-TA-luc), IL-6 stimulation
T1 construct: plasmid pSTAT3-TA-luc), which contains a stably operating STAT3 promoter; endogenous in cells
How it was run: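 Cytotoxicity was run on a duplicate plate with CellTiter-Glo, while the other plate gave luciferase read-outs from lysed LNCaP pSTAT3-TA-luc reporter cells. Cells were treated with graded compound concentrations plus IL-6 (10 ng/mL final) for 24–48 h in 3% DCC-FBS medium. Unstimulated and stimulated wells served as negative and positive controls.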

AGS = assay: Cell growth inhibition assay, stomach cancer cell line AGS; details: Homo sapiens; AGS stomach cancer cell line, 3,000 cells/well
Experimental: The inhibitory effects of the compounds of the present invention against the growth of cancer cells were evaluated as shown below. The cancer cell lines including stomach cancer cell line (AGS), breast cancer cell lines (MDA-MB-231, MDA-MB-468, and BT-549), prostate cancer cell lines (LNCaP and DU-145), colon cancer cell line (HCT116), ovarian cancer cell line (SW626), liver cancer cell line (Hep3B), kidney cancer cell line (ACHN), lung cancer cell line (NCI-H23) and blood cancer cell lines (HEL92.1.7 and U266) were cultured under the protocol provided by each supplier. A medium supplemented with 10 ng/mL of IL-6 was used for LNCaP, a prostate cancer cell line, when treated with a drug. Each type of cells to be used in experiments were sub-cultured in a 96-well plate by counting the exact number of cells using Tali™ Image-based Cytometer (Life Technologies). In a 96-well plate, AGS, HCT116, and DU-145 were employed with 3,000 cells/well; NCI-H23, SW626, Hep3B, ACHN, BT-549, MDA-MB-231, HEL92.1.7, and U266 were employed with 5,000 cells/well; and LNCaP and MDA-MB-468 were employed with 10,000 cells/well. The cells were treated with the compounds listed in Examples which were diluted in various concentrations. Upon completion of the compounds treatment, AGS, HCT116, SW626, DU145, NCI-H23, Hep3B, ACHN, BT-549, LNCaP, HEL92.1.7, and U266 cells were cultured at 37° C. under 5% CO2 for from 72 to 96 hours, and MDA-MB-231 and MDA-MB-468 cells were cultured at 37° C. in air for from 72 to 96 hours. Subsequently, the cells were observed under microscope and drug precipitation and particular findings were investigated and recorded. And then, the 96-well plate was placed at room temperature for 30 minutes, added with 20 μL/well of CellTiter-Glo solution (Cat No. G7573, Promega) and shaken for 10 minutes, followed by being subjected to the measurement using PHERAstar™ microplate reader (BMG LABTECH) according to the supplier's general luminometer protocol. Wells where only culture liquid added without cell plating were used as a negative control, whereas wells where culture liquid containing 0.1% DMSO instead of the compounds listed in Examples were used as a positive control.

LNCaP = assay: Cell growth inhibition assay, prostate cancer cell line LNCaP (medium with 10 ng/mL IL-6); details: Homo sapiens, medium supplemented with 10 ng/mL of IL-6, 10,000 cells/well
MDA-MB-231 = assay: Cell growth inhibition assay, breast cancer cell line MDA-MB-231; details: Homo sapiens; MDA-MB-231 breast cancer cell line, 5,000 cells/well
DU-145 = assay: Cell growth inhibition assay, prostate cancer cell line DU-145; details: Homo sapiens, DU-145 prostate cancer cell line
How it was run: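 Luminescent CellTiter-Glo readout of viable cells after 72–96 h compound exposure (37° C., 5% CO2). Seeding: 3,000 cells/well for DU-145 and HCT116, 5,000 cells/well for SW626. Controls were medium without cells and 0.1% DMSO vehicle.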

HEL92.1.7 = assay: Cell growth inhibition assay, blood cancer cell line HEL92.1.7; details: Homo sapiens, HEL 92.1.7, HEL92.1.7 blood cancer cell line
How it was run: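 Cells were seeded at 3,000/well (HCT116, DU-145) or 5,000/well (SW626 and the others) and exposed to serial compound dilutions for 72 to 96 h at 37 °C under 5% CO2. Viability was read as CellTiter-Glo luminescence against 0.1% DMSO and cell-free wells.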

T1 sequence (P40763 whole entry): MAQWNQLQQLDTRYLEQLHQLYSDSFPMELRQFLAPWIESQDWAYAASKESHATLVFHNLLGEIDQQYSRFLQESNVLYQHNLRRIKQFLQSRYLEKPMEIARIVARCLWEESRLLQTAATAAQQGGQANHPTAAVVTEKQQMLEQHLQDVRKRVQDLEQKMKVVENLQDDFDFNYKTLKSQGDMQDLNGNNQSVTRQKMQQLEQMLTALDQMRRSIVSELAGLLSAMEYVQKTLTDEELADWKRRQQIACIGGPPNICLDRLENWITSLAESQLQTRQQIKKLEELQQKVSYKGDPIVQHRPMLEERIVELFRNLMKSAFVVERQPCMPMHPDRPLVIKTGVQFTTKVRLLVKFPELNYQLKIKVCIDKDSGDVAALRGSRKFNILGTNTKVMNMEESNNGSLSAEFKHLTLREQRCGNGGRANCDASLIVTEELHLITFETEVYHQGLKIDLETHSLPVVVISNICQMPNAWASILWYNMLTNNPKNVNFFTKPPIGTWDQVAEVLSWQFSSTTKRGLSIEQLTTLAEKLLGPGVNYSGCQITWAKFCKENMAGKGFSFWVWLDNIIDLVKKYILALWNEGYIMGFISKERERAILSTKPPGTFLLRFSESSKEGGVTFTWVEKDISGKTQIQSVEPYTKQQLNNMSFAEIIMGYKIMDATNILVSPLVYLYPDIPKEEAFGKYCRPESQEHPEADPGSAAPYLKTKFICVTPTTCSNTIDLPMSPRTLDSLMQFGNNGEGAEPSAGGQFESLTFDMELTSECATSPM

Compound | IC50 (STAT3) [µM] | IC50 (AGS) [µM] | IC50 (LNCaP) [µM] | IC50 (MDA-MB-231) [µM] | IC50 (DU-145) [µM] | IC50 (HEL92.1.7) [µM]
Cn1c(C(=O)Nc2cccc(-c3ccc(F)cc3F)c2)cc2ccc([N+](=O)[O-])cc21 [Example 247, N-(2′,4′-difluoro-[1,1′-biphenyl]-3-yl)-1-methyl-6-nitro-1H-indole-2-carboxamide] | > 10 | > 50 | 3.7 |  |  | 
CS(=O)(=O)Nc1ccc2cc(C(=O)Nc3cccc(-c4ccc(S(N)(=O)=O)cc4C(F)(F)F)c3)[nH]c2c1 [Example 283, 6-(methylsulfonamido)-N-(4′-sulfamoyl-2′-(trifluoromethyl)-[1,1′-biphenyl]-3-yl)-1H-indole-2-carboxamide] | 7.4 | 18.2 | > 10 |  |  | 
O=C(Nc1cc(-c2ccc(F)cc2F)ccn1)c1cc2ccc(NS(=O)(=O)C3CC3)cc2[nH]1 [Example 278, 6-(cyclopropanesulfonamido)-N-(4-(2,4-difluorophenyl)pyridin-2-yl)-1H-indole-2-carboxamide] | 4.5 | 20 | 5.9 |  |  | 
Cn1c(C(=O)Nc2cccc(-c3ccccc3C(F)(F)F)c2)cc2ccc([N+](=O)[O-])cc21 [Example 249, 1-methyl-6-nitro-N-(2′-(trifluoromethyl)-[1,1′-biphenyl]-3-yl)-1H-indole-2-carboxamide] | > 10 | 8.4 | > 10 |  |  | 
CS(=O)(=O)Nc1ccc2c(c1)NC(C(=O)Nc1cccc(-c3ccc(F)cc3F)c1)C2 (stereo not shown) [Example 261, N-(2′,4′-difluoro-[1,1′-biphenyl]-3-yl)-6-(methylsulfonamido)indoline-2-carboxamide] | 2.4 | 28.4 | 2.9 |  |  | 
Nc1ccc2[nH]c(C(=O)Nc3cccc(-c4ccccc4C(F)(F)F)c3)cc2c1 [Example 258, 5-amino-N-(2′-(trifluoromethyl)-[1,1′-biphenyl]-3-yl)-1H-indole-2-carboxamide] | 2.7 | 16.3 | 5.2 |  |  | 
O=C(Nc1cccc(-c2ccccc2C(F)(F)F)c1)c1cc2ccc(NS(=O)(=O)C(F)(F)F)cc2[nH]1 [Example 268, N-(2′-(trifluoromethyl)-[1,1′-biphenyl]-3-yl)-6-(trifluoromethylsulfonamido)-1H-indole-2-carboxamide] | > 10 | 27.1 | > 10 |  |  | 
CN(C)S(=O)(=O)Nc1ccc2cc(C(=O)Nc3cccc(-c4ccc(F)cc4F)c3)[nH]c2c1 [Example 276, N-(2′,4′-difluoro-[1,1′-biphenyl]-3-yl)-6-((N,N-dimethylsulfamoyl)amino)-1H-indole-2-carboxamide] | 3.1 | 11.9 | 1.3 |  |  | 
CC(C)(C)OC(=O)n1c(C(=O)Nc2cccc(-c3ccccc3C(F)(F)F)c2)cc2ccc([N+](=O)[O-])cc21 [Example 263, tert-butyl 6-nitro-2-((2′-(trifluoromethyl)-[1,1′-biphenyl]-3-yl)carbamoyl)-1H-indole-1-carboxylate] | > 10 | > 50 | 8 |  |  | 
CS(=O)(=O)Nc1ccc2c(C(=O)Nc3cccc(-c4ccccc4C(F)(F)F)c3)c[nH]c2c1 [Example 266, 6-(methylsulfonamido)-N-(2′-(trifluoromethyl)-[1,1′-biphenyl]-3-yl)-1H-indole-3-carboxamide] | 6.8 | 8.5 | > 10 |  |  | 
O=C(Nc1cccc(-c2ccc(F)cc2C(F)(F)F)c1)C1Cc2ccc([N+](=O)[O-])cc2N1 (stereo not shown) [Example 229, N-(4′-fluoro-2′-(trifluoromethyl)-[1,1′-biphenyl]-3-yl)-6-nitroindoline-2-carboxamide] | 1.4 | 16.1 | 5.4 |  |  | 
CC(C)(c1cc(Br)cc(NC(=O)c2cc3ccc(NS(C)(=O)=O)cc3[nH]2)c1)c1ccc(F)cc1F [Example 15, N-(3-bromo-5-(2-(2,4-difluorophenyl)propan-2-yl)phenyl)-6-(methylsulfonamido)-1H-indole-2-carboxamide] | 0.12 |  | 0.29 | 0.068 | 0.25 | 1.8

The remaining lines, values ahead:

IC50 (STAT3) [µM] | IC50 (AGS) [µM] | IC50 (LNCaP) [µM] | IC50 (MDA-MB-231) [µM] | IC50 (DU-145) [µM] | IC50 (HEL92.1.7) [µM] | Compound
3.2 | 13.9 | 8.1 |  |  |  | CS(=O)(=O)Nc1ccc2cc(C(=O)Nc3cccc(-c4cnccc4C(F)(F)F)c3)[nH]c2c1 [Example 291, 6-(methylsulfonamido)-N-(3-(4-(trifluoromethyl)pyridin-3-yl)phenyl)-1H-indole-2-carboxamide]
2.5 | 13.6 | 3.3 |  |  |  | CS(=O)(=O)Nc1ccc2cc(C(=O)Nc3cccc(-c4ccc([N+](=O)[O-])cc4C(F)(F)F)c3)[nH]c2c1 [Example 285, 6-(methylsulfonamido)-N-(4′-nitro-2′-(trifluoromethyl)-[1,1′-biphenyl]-3-yl)-1H-indole-2-carboxamide]
> 10 | > 50 | > 10 |  |  |  | CS(=O)(=O)Nc1ccc2cc(C(=O)Nc3cc(-c4cc(C(N)=O)ccc4Cl)ccn3)[nH]c2c1 [Example 381, N-(4-(5-carbamoyl-2-chlorophenyl)pyridin-2-yl)-6-(methylsulfonamido)-1H-indole-2-carboxamide]
3.8 | 9.8 | 8.2 |  |  |  | CS(=O)(=O)Nc1ccc2cc(C(=O)Nc3cccc(C(F)(F)c4ccncc4)c3)[nH]c2c1 [Example 388, N-(3-(difluoro(pyridin-4-yl)methyl)phenyl)-6-(methylsulfonamido)-1H-indole-2-carboxamide]
> 10 | 10.2 | > 10 |  |  |  | COC(=O)c1ccc(C(F)(F)F)c(-c2cccc(NC(=O)c3cc4ccc([N+](=O)[O-])cc4[nH]3)c2)c1 [Example 286, methyl 3′-(6-nitro-1H-indole-2-carboxamido)-6-(trifluoromethyl)-[1,1′-biphenyl]-3-carboxylate]
> 10 | 23.6 | > 10 |  |  |  | COC(=O)c1ccc(C(F)(F)F)c(-c2cccc(NC(=O)c3cc4ccc(NS(C)(=O)=O)cc4[nH]3)c2)c1 [Example 287, methyl 3′-(6-(methylsulfonamido)-1H-indole-2-carboxamido)-6-(trifluoromethyl)-[1,1′-biphenyl]-3-carboxylate]
> 10 | 39.9 | > 10 |  |  |  | CS(=O)(=O)Nc1ccc2cc(C(=O)Nc3cccc(-c4cc(C(N)=O)c(O)cc4C(F)(F)F)c3)[nH]c2c1 [Example 378, N-(5′-carbamoyl-4′-hydroxy-2′-(trifluoromethyl)-[1,1′-biphenyl]-3-yl)-6-(methylsulfonamido)-1H-indole-2-carboxamide]
> 10 | 31.7 | > 10 |  |  |  | COC(=O)c1ccc(Cl)c(-c2cccc(NC(=O)c3cc4ccc([N+](=O)[O-])cc4[nH]3)c2)c1 [Example 298, methyl 6-chloro-3′-(6-nitro-1H-indole-2-carboxamido)-[1,1′-biphenyl]-3-carboxylate]
> 10 | > 50 | > 10 |  |  |  | COc1ccc(-c2cccc(NC(=O)c3cc4ccc([N+](=O)[O-])cc4[nH]3)c2)c(F)c1 [Example 295, N-(2′-fluoro-4′-methoxy-[1,1′-biphenyl]-3-yl)-6-nitro-1H-indole-2-carboxamide]
0.4 |  | 2.5 | 0.11 | 0.57 | 2.7 | CS(=O)(=O)Nc1ccc2cc(C(=O)Nc3cc(Br)cc(-c4ccc(F)cc4F)c3)[nH]c2c1 [Example 302, N-(5-bromo-2′,4′-difluoro-[1,1′-biphenyl]-3-yl)-6-(methylsulfonamido)-1H-indole-2-carboxamide]
